Measurements taken from US5962469A, “Cyclic nitrones” (Hoechst Marion Roussel Inc., priority 1997, dated 1999).

What was measured:
[1] = OH radical trapping (inhibition of the bleaching of p-NDA, primary assay); assay type: biochemical; conditions: for IC50: IC50, Fenton chemistry (Fe2+/H2O2), pH 7.0
Protocol: 2. Assessment as .OH Traps
A. Inhibition of the bleaching of p-NDA
Cyclic nitrones were evaluated for .OH trapping activity by a variety of tests. The primary assay was dependent upon the ability of the compounds to inhibit the .OH-dependent bleaching of p-NDA. Bors, W., Michel, C., and Saran, M. (1979) J. Biochem. 95, 621-627. The p-NDA was prepared at 1 mM in 50 mM NaCl, pH 7.0. The hydroxyl radical was generated using Fenton chemistry (Fe^2+ /H2 O2). FeCl2 is dissolved in N2 purged, double distilled […] to a final concentration of 2.5 mM. H2 O2 was prepared from a 30% stock solution (8.8 M) at 1.25 mM in the buffer. Test compounds were solubilized in buffer or ethanol at a concentration of 1 M or 5 M, depending upon solubility.
Assay mixtures in glass cuvettes contained solutions of 0.02 ml of H2 O2, 0.02 ml of test compound, 0.10 ml of p-NDA and 50 mM NaCl, pH 7.0 to a final volume of 0.98 ml. The oxidation was initiated by the addition of 0.02 ml of Fe^2+ and the bleaching of p-NDA was monitored as the loss in absorbance at 440 nm for 100 sec. To generate concentration curves, serial dilutions of the test compounds were made such that a constant volume of 0.02 ml was added to the reaction mixture. Ethanol itself is an .OH trap, thus controls contained an equal volume of ethanol for any test compound requiring this vehicle. The IC50 values for the nitrones were determined by GraphPad InPlot 4 and represent the amount of spin trap required to inhibit the bleaching of p-NDA by 50%.

[2] = compared with PBN; cited from earlier work
[3] = Duration of in vivo activity of compound A; design: species or system rats; conditions: relative to the sedative effect
Sedation in rats = assay type: in vivo
[4] = Inhibition of lipid peroxidation (soybean phosphatidylcholine liposomes); assay type: biochemical; conditions: Fe2+-initiated, 37° C., 15 min time point, TBARS, read-out: LIPID OX (IC50)
Protocol: 1. Inhibition of lipid peroxidation
For determination of the ability to inhibit lipid peroxidation, liposomes were prepared from soybean phosphatidylcholine by ethanol injection. An aliquot of phosphatidylcholine was dried in a small glass vial under N2. The lipid was resolubilized in ethanol at a volume of 10 ml per ml of liposomes. Typically, 8 ml volumes of liposomes were prepared per tube and then all preparations were combined to provide a homogenous mixture for the assay. The ethanol containing the lipid was taken up in a Hamilton syringe and injected into the appropriate volume of 50 mM NaCl/10 mM Tris, pH 7.0 at 37° C. with mixing to achieve a final lipid concentration of 0.563 mM.
The liposomes were added to 25 ml beakers in a Dubnoff metabolic shaker at 37° C. To the liposomes were added the test compound (in ethanol or buffer), histidine-FeCl3 250:[…] final), FeCl2 ([…] final, prepared in N2 purged water) and sufficient buffer to achieve a final lipid concentration of 0.5 mM. Oxidations were initiated by the addition of Fe^2^+ and carried out under an air atmosphere with shaking. One ml aliquots were removed at 0,2,4,6,8,10,12 and 15 min and added to 2 ml of 0.67% thiobarbituric acid : 10% trichloroacetic acid (2:1) in 0.25 N HCl containing 0.05 ml of 2% BHT to terminate oxidation. Thomas, C. E., McLean, L. R., Parker, R. A., and Ohlweiler, D. F. (1992) Lipids 27, 543-550.
The samples were heated at 100° C. for 20 min in 13 x 100 mm borosilicate glass tubes covered with marbles to prevent evaporation. After cooling, the tubes were centrifuged at 3,000 rpm for 10 min and the absorbance of the resultant supernatant read at 532 nm-580 nm. Quantitation of thiobarbituric acid reactive substances (TBARS) was determined by comparison to a standard curve of malondialdehyde equivalents generated by acid catalyzed hydrolysis of 1,1,3,3-tetraethoxypropane. The IC50 was determined using the 15 min time point with the computer program GraphPad INPLOT 4. This program uses a nonlinear regression with sigmoidal curve on a semilogarithmic scale.

[5] = compared with PBN; cited from earlier work; remark: listed apart in the source
Solubility = assay type: physicochemical; conditions: for water solubility: noted during work-up
Cerebellar Granule Cells [6] = test: Protection of cerebellar granule cells against Fe2+-induced oxidation (TBARS); assay type: cell-based; conditions: Rattus norvegicus, 0.75 h, read-out: TBARS IC50
Protocol: (§1) 3. Protection of cerebellar granule cells against oxidative damage
(§2) The cyclic nitrones were tested for their ability to protect primary cultures of cerebellar granule cells against oxidative injury induced by treatment with Fe^2+. Cerebellar granule cell cultures were prepared from 8 day old rats as previously described. […] Briefly, 8-10 cerebella were removed and placed in a Krebs-Ringer bicarbonate medium supplemented with BSA and MgSO4. Cerebella were finely chopped and digested with a trypsin/Krebs-Ringer solution. Cells were then dispersed by trituration in Krebs-Ringer containing DNase, MgSO4 and trypsin inhibitor followed by plating at a density of 1×10^6 cells/well in poly-l-lysine coated plate in MEM/10% fetal bovine serum/KCl/glutamine/gentamicin. Media was replaced at 24 hours and cytosine arabinoside added. Experiments were conducted with cells 8-10 days in vitro.
(§3) The nitrones were added in either Locke's solution or in 20% β-cyclodextrins and allowed to incorporate into the cells for 30 min. At this time 20 μl of a 5 mM stock solution of ferrous chloride was added for a final concentration of 100 μM. After 45 min the media was removed and added to 1.5 ml of TBA/TCA (2:1) with 25 μl of 2% BHT and TBARS determined as described above. The absorbance of the control cells (no iron) was subtracted from the iron treated cells and this value taken as the denominator to determine the concentration of nitrone required to inhibit oxidation by 50%.

[7] = Metabolites of A isolated from an in vivo experiment; conditions: relative to Metabolite 2
Source text: Indeed, from the onset, a primary goal has been to find a potent antioxidant which lacks this side effect observed with compound A. In this regard, the following observations were of special interest. […] In order to investigate this possibility, the major metabolite C and a minor, possibly secondary, metabolite (Metabolite 2) were isolated from an in vivo experiment, purified by HPLC, and assigned the structures shown below (FIG. 3). [drawing 16]

Cerebellar Granule Cells [8] = test: Protection of cerebellar granule cells against Fe2+-induced damage (viability, MTT); assay type: cell-based; conditions: Rattus norvegicus, read-out: Viability IC50
Protocol: as §1, §2, §3
Fresh MEM media was added to the cells along with 100 μl of MTT. After 4 hrs, 1 ml of cold isopropanol/0.04 N HCl was added, the cells scraped, mixed well and transferred to 13×100 mm glass test tubes. The absorbance resulting from mitochondrial reduction of the MTT (570 nm minus 630 nm) was measured as an assessment of viability. The % cell death was determined by comparison to the absorbance of cells to which no iron was added.

[9] = ESR spectroscopy, gerbils; cited from earlier work
[10] = test system: endotoxin associated mortality; conditions: rats; cited from earlier work
[11] = test system: neuronal cell loss and neurologic deficits; conditions: stroke, gerbil model; cited from earlier work
ischemia-induced damage = conditions: vitamin E supplementation; cited from earlier work
loss of cell viability = conditions: prior administration for vitamin E; cited from earlier work
[12] = Fe2+-induced damage, 100 μM ferrous chloride, 45 min
[13] = Fe2+-induced damage, MTT reduction

Compound	IC50 [4] [µM]	IC50 (Cerebellar Granule Cells [6]; [12]) [µM]	IC50 (Cerebellar Granule Cells [8]; [13]) [µM]	also measured
CC1(C)Cc2ccccc2C=[N+]1[O-] [A, 3,4-dihydro-3,3-dimethylisoquinoline N-oxide]	1670			IC50 [1]: 2830 µM; inhibition of lipid oxidation relative to PBN [2]: more potent inhibitors of lipid oxidation; duration of in vivo activity [3]: persists for a considerably longer period of time; sedation (Sedation in rats; high doses in rats): causes sedation when administered in high doses in rats; time course of sedative effect (Sedation in rats; rats): peaks and declines rapidly; hydroxyl radical trapping relative to PBN [5]: better hydroxyl radical traps
[O-][N+]1=Cc2ccccc2CC12CCCCC2 [B, spiro [cyclohexane-1,3']3,4-dihydroisoquinoline N-oxide, reference compound]				inhibition of lipid oxidation relative to PBN [2]: more potent inhibitors of lipid oxidation; hydroxyl radical trapping relative to PBN [5]: better hydroxyl radical traps
CC1(C)C(O)c2ccccc2C=[N+]1[O-] (centres unmarked) [C, 3,3-Dimethyl-3,4-dihydroisoquinolin-4-ol, N-oxide]		1900	1550	water solubility (Solubility): relatively high water solubility; abundance of metabolite in vivo [7]: much more abundant in vivo than Metabolite 2
CC1(C)Cc2c(ccc3ccccc23)C=[N+]1[O-] [Compound 9, 2,2-Dimethyl-1,2-dihydrobenzo[f]isoquinoline N-oxide]	100			solubility (Solubility; reason for OH radical trapping not measured): low solubility
CC1(C)Cc2ccc3ccccc3c2C=[N+]1[O-] [Compound 10, 3,3-Dimethyl-3,4-dihydrobenzo[h]isoquinoline N-oxide]	69			
CC1(C)Cc2ccsc2C=[N+]1[O-] [Compound 13, 5,5-Dimethyl-4,5-dihydrothieno[2,3-c]pyridine N-oxide]	1720			IC50 [1]: 4340 µM
Cc1cc2c(c(C)c1O)CC(C)(C)[N+]([O-])=C2 [Compound 15, 3,3,5,7-Tetramethyl-3,4-dihydroisoquinolin-6-ol N-oxide]		220	190	
Cc1cc2c(c(C)c1O)CC(C)(C)N=C2 [Compound 38, 3,3,5,7-Tetramethyl-3,4-dihydroisoquinolin-6-ol]				water solubility (Solubility): high water solubility
CC1(C)Cc2sccc2C=[N+]1[O-] [Compound 48, 6,6-Dimethyl-6,7-dihydrothieno[3,2-c]pyridine N-oxide]	1590			IC50 [1]: 14400 µM
CC1(C)Cc2ccoc2C=[N+]1[O-] [Compound 53, 5,5-Dimethyl-4,5-dihydrofuro[2,3-c]pyridine N-oxide]	1070			OH RADICAL TRAPPING (effect) ([1]; at 20 mM): no effect
CC(=O)OC1c2ccccc2C=[N+]([O-])C1(C)C (centres unmarked) [Compound 76, 4-Acetoxy-3,3-dimethyl-3,4-dihydroisoquinoline, N-oxide]		839	864	
CC1(C)C(=O)c2ccccc2C=[N+]1[O-] [Compound 77, 3,3-Dimethyl-3H-isoquinolin-4-one, N-oxide]		830	385	
[O-][N+]1=Cc2ccccc2C(O)C12CCCCC2 (centres unmarked) [D, 3,4-dihydroisoquinolin-4-ol-3-spirocyclohexane, N-oxide]		520	588	
O=C1c2ccccc2C=[N+]([O-])C12CCCCC2 [E, 3H-isoquinolin-4-one-3-spirocyclohexane, N-oxide]		37	39	
[O-][N+]1=Cc2ccccc2C(O)C12CCCC2 (centres unmarked) [F, 3,4-dihydroisoquinolin-4-ol-3-spirocyclopentane, N-oxide]		771	817	
O=C1c2ccccc2C=[N+]([O-])C12CCCC2 [G, 3H-isoquinolin-4-one-3-spirocyclopentane, N-oxide]		102	105	
CC(C)(C)[N+]([O-])=Cc1ccccc1 [PBN, alpha-phenyl-tert-butyl nitrone]				trapping of lipid-derived radicals in cortical tissue [9]: trap lipid-derived radicals in cortical tissue; IC50 (Cerebellar Granule Cells [6]): 2600 µM; reduction of endotoxin associated mortality [10]: reduce endotoxin associated mortality in rats; IC50 (Cerebellar Granule Cells [8]): 2600 µM; effect on neuronal cell loss and neurologic deficits [11]: can significantly ameliorate neuronal cell loss and neurologic deficits
Cc1c(C)c2c(c(C)c1O)CCC(C)(CCCC(C)CCCC(C)CCCC(C)C)O2 (stereo not drawn) [vitamin E, α-tocopherol]				protective effect against ischemia-induced damage (ischemia-induced damage): some protective effect; protection against loss of cell viability (loss of cell viability): partial protection
